Source: ChEMBL document CHEMBL1201862, “PubChem BioAssay data set” (2004)
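How tested: cells in 96-well plates exposed to compound for 48 hours at five concentrations. GI50 marks 50% less growth.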 Active and inactive are the calls of the source. Rule as the data show it: active = GI50 up to about 1.1 µM and inactive = higher.

How the values were obtained:
Assay in all cases: growth of human tumour cells (NCI), 48 h
HCT-15 = system: HCT-15
SK-MEL-2 = system: SK-MEL-2
NCI-H226 = system: NCI-H226
UO-31 = system: UO-31
Malme-3M = system: Malme-3M
A498 = system: A498
Hs-578T = system: Hs-578T
M14 = system: M14
MDA-MB-231 = system: MDA-MB-231
NCI-H460 = system: NCI-H460
CAKI-1 = system: CAKI-1
OVCAR-3 = system: OVCAR-3
NCI/ADR-RES = system: NCI/ADR-RES
SNB-75 = system: SNB-75
SF-268 = system: SF-268
SK-MEL-28 = system: SK-MEL-28
UACC-62 = system: UACC-62
A549 = system: A549
BT-549 = system: BT-549
DU-145 = system: DU-145
786-0 = system: 786-0
T47D = system: T47D
HOP-62 = system: HOP-62
HCT-116 = system: HCT-116
U-251 = system: U-251
HOP-92 = system: HOP-92
LOX IMVI = system: LOX IMVI
PC-3 = system: PC-3
EKVX = system: EKVX
SN12C = system: SN12C
CCRF-CEM = system: CCRF-CEM
UACC-257 = system: UACC-257
OVCAR-4 = system: OVCAR-4
HT-29 = system: HT-29
SF-295 = system: SF-295
SW-620 = system: SW-620
IGROV-1 = system: IGROV-1
NCI-H522 = system: NCI-H522
KM12 = system: KM12
TK-10 = system: TK-10
SF-539 = system: SF-539
COLO 205 = system: COLO 205
NCI-H23 = system: NCI-H23
SK-OV-3 = system: SK-OV-3
MCF7 = system: MCF7
SK-MEL-5 = system: SK-MEL-5
RPMI-8226 = system: RPMI-8226
RXF 393 = system: RXF 393
ACHN = system: ACHN
OVCAR-8 = system: OVCAR-8
HCC 2998 = system: HCC 2998
MDA-MB-435 = system: MDA-MB-435
SNB-19 = system: SNB-19
K562 = system: K562
MOLT-4 = system: MOLT-4
HL-60 = system: HL-60
OVCAR-5 = system: OVCAR-5
SR = system: SR
MDA-N = system: MDA-N

Measured: GI50

CCN(CC)/N=N/c1c(C(N)=O)n[nH]c1C
inactive: SK-MEL-2 > 100 µM | NCI-H226 48.9 µM | UO-31 20.7 µM | Malme-3M 64.3 µM | A498 > 100 µM | Hs-578T 45.9 µM | M14 > 100 µM | MDA-MB-231 > 100 µM | NCI-H460 31.2 µM | CAKI-1 17.9 µM | OVCAR-3 > 100 µM | NCI/ADR-RES 48.5 µM | SNB-75 23.2 µM | SF-268 39.3 µM | SK-MEL-28 > 100 µM | UACC-62 35 µM | A549 69 µM | BT-549 11.1 µM | DU-145 69.5 µM | 786-0 29.6 µM | T47D 60.3 µM | HOP-62 31.2 µM | HCT-116 > 100 µM | U-251 59 µM | HOP-92 11.3 µM | LOX IMVI 28.6 µM | PC-3 > 100 µM | EKVX 26.9 µM | SN12C 40.6 µM | CCRF-CEM 18.3 µM | UACC-257 > 100 µM | OVCAR-4 > 100 µM | HT-29 > 100 µM | SF-295 38.1 µM | SW-620 71.3 µM | IGROV-1 > 100 µM | NCI-H522 65.2 µM | KM12 50 µM | TK-10 > 100 µM | SF-539 29.5 µM | COLO 205 52.5 µM | NCI-H23 36.9 µM | SK-OV-3 22.1 µM | MCF7 30.5 µM | SK-MEL-5 33.7 µM | RPMI-8226 44.2 µM | RXF 393 > 100 µM | ACHN 32.8 µM | OVCAR-8 49.4 µM | HCC 2998 > 100 µM | MDA-MB-435 77.4 µM | SNB-19 77.1 µM
63.7 µM: HCT-15

O=c1[nH]c(-c2ccc(Cl)cc2)cc2ccsc12
inactive: SK-MEL-2 3.21 µM | NCI-H226 > 100 µM | UO-31 5.94 µM | Malme-3M 1.2 µM | M14 3.48 µM | NCI-H460 4.74 µM | CAKI-1 2.52 µM | OVCAR-3 1.66 µM | NCI/ADR-RES 3.56 µM | SNB-75 3.66 µM | SF-268 9.23 µM | SK-MEL-28 5.15 µM | UACC-62 8.22 µM | A549 3.5 µM | BT-549 4.82 µM | DU-145 2.05 µM | T47D 2.37 µM | HOP-62 8.07 µM | HCT-116 3.3 µM | U-251 3.14 µM | HOP-92 10.6 µM | LOX IMVI 4.36 µM | PC-3 8.83 µM | EKVX 8.38 µM | K562 5.16 µM | SN12C 5.5 µM | OVCAR-4 23.3 µM | HT-29 4.07 µM | SF-295 3.42 µM | MOLT-4 3.78 µM | SW-620 4.69 µM | IGROV-1 3.49 µM | NCI-H522 3.31 µM | KM12 3.21 µM | TK-10 2.82 µM | HL-60 2.94 µM | COLO 205 9.82 µM | NCI-H23 4.92 µM | SK-OV-3 4.9 µM | MCF7 5.05 µM | SK-MEL-5 4.41 µM | OVCAR-5 6.34 µM | RPMI-8226 3.1 µM | RXF 393 12.2 µM | ACHN 6.03 µM | MDA-N 1.58 µM | OVCAR-8 8.41 µM | HCC 2998 2.31 µM | SNB-19 2.49 µM
2.26 µM: HCT-15
active: UACC-257 0.662 µM | SR 0.506 µM | MDA-MB-435 0.453 µM

CCOP(=O)(OCC)c1cc2cc(O)ccc2oc1=O
active: UO-31 0.0112 µM
> 100 µM: HCT-15
inactive: NCI-H226 > 100 µM | A498 > 100 µM | Hs-578T > 100 µM | M14 > 100 µM | MDA-MB-231 > 100 µM | NCI-H460 > 100 µM | CAKI-1 > 100 µM | OVCAR-3 > 100 µM | NCI/ADR-RES > 100 µM | SNB-75 > 100 µM | SF-268 > 100 µM | SK-MEL-28 > 100 µM | UACC-62 > 100 µM | A549 > 100 µM | DU-145 > 100 µM | 786-0 > 100 µM | T47D > 100 µM | HOP-62 > 100 µM | HCT-116 > 100 µM | U-251 > 100 µM | HOP-92 > 100 µM | LOX IMVI > 100 µM | PC-3 > 100 µM | EKVX > 100 µM | K562 > 100 µM | SN12C > 100 µM | CCRF-CEM > 100 µM | UACC-257 > 100 µM | OVCAR-4 > 100 µM | HT-29 > 100 µM | SF-295 > 100 µM | SW-620 > 100 µM | IGROV-1 > 100 µM | NCI-H522 > 100 µM | KM12 > 100 µM | TK-10 > 100 µM | SF-539 > 100 µM | HL-60 > 100 µM | COLO 205 > 100 µM | NCI-H23 > 100 µM | SK-OV-3 > 100 µM | MCF7 > 100 µM | SK-MEL-5 > 100 µM | OVCAR-5 > 100 µM | RPMI-8226 > 100 µM | SR > 100 µM | RXF 393 > 100 µM | ACHN > 100 µM | MDA-N > 100 µM | OVCAR-8 > 100 µM | HCC 2998 > 100 µM | MDA-MB-435 > 100 µM | SNB-19 > 100 µM

O=C1/C(=C/c2cccc([N+](=O)[O-])c2)Sc2scc(-c3ccc([N+](=O)[O-])cc3)[n+]21
inactive: SK-MEL-2 20.2 µM | NCI-H226 26.3 µM | UO-31 11.3 µM | M14 60.8 µM | MDA-MB-231 21.9 µM | NCI-H460 11.4 µM | CAKI-1 20.6 µM | OVCAR-3 31.6 µM | NCI/ADR-RES 19 µM | SNB-75 11 µM | SK-MEL-28 25.5 µM | UACC-62 18.7 µM | A549 29.6 µM | BT-549 11.6 µM | DU-145 35.2 µM | 786-0 16.4 µM | T47D 44.9 µM | HOP-62 16.6 µM | HCT-116 16 µM | U-251 27.2 µM | HOP-92 24.5 µM | LOX IMVI 18.5 µM | PC-3 30.7 µM | EKVX 18.4 µM | SN12C 18.3 µM | UACC-257 21.8 µM | OVCAR-4 30.4 µM | HT-29 17.4 µM | SF-295 14.8 µM | MOLT-4 21.1 µM | SW-620 30 µM | IGROV-1 18.6 µM | KM12 15.2 µM | SF-539 23.8 µM | COLO 205 36.7 µM | NCI-H23 15.2 µM | SK-OV-3 69.5 µM | MCF7 24.7 µM | SK-MEL-5 27.7 µM | OVCAR-5 24.5 µM | ACHN 19.8 µM | MDA-N 24.5 µM | OVCAR-8 31.6 µM | HCC 2998 16.4 µM | MDA-MB-435 16.9 µM | SNB-19 18.9 µM
14.5 µM: HCT-15

CCN(CCCl)c1cc(CN(C)C)cc(NC(=O)C23CCC(C(=O)Nc4cc(CN(C)C)cc(N(CC)CCCl)c4)(CC2)CC3)c1
active: Hs-578T 0.46 µM | NCI-H460 0.0687 µM | SNB-75 1.01 µM | SF-268 0.23 µM | A549 1.03 µM | DU-145 0.804 µM | 786-0 0.073 µM | HOP-62 0.372 µM | HCT-116 1.11 µM | U-251 0.764 µM | LOX IMVI 0.152 µM | PC-3 0.351 µM | K562 0.738 µM | SN12C 0.245 µM | CCRF-CEM < 0.01 µM | HT-29 0.229 µM | MOLT-4 < 0.01 µM | SW-620 0.105 µM | NCI-H522 0.202 µM | SF-539 0.443 µM | HL-60 0.0157 µM | NCI-H23 0.424 µM | SK-OV-3 0.372 µM | MCF7 0.0255 µM | SR 0.0329 µM | OVCAR-8 1.11 µM | SNB-19 0.113 µM
inactive: SK-MEL-2 2.39 µM | NCI-H226 1.4 µM | UO-31 17.1 µM | Malme-3M 1.71 µM | A498 6.44 µM | M14 2.97 µM | MDA-MB-231 12.8 µM | CAKI-1 11.1 µM | NCI/ADR-RES 29.9 µM | SK-MEL-28 1.75 µM | UACC-62 1.14 µM | T47D 3.03 µM | HOP-92 1.43 µM | UACC-257 3.96 µM | OVCAR-4 1.4 µM | SF-295 1.59 µM | IGROV-1 1.44 µM | KM12 1.67 µM | TK-10 8.49 µM | COLO 205 1.49 µM | SK-MEL-5 1.75 µM | OVCAR-5 1.5 µM | RPMI-8226 1.35 µM | RXF 393 1.37 µM | ACHN 2.22 µM | MDA-N 1.12 µM | HCC 2998 1.33 µM | MDA-MB-435 1.39 µM
13.4 µM: HCT-15
